The experiment has as its target T1, PYCR1 (recombinant human His-PYCR1) (Homo sapiens, UniProt P32322).
T1 sequence (P32322 2-319): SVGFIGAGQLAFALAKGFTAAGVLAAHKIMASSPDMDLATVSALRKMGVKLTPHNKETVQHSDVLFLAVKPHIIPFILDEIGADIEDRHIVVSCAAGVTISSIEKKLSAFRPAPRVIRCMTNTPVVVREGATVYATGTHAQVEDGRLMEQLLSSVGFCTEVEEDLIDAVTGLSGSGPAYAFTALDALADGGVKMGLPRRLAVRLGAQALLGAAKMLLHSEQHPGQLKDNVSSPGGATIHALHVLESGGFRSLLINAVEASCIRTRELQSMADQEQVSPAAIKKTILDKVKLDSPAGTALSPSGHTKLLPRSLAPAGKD
Put plainly: surface plasmon resonance. In kind it is binding. A general note: SPR reads the build-up and loss of mass on a sensor chip optically.

Among the data in article PMC12309613 (Translational Oncology, 2025) are Kd values, retold here.

One may read the Kd as a measure of binding affinity in units of concentration. With `Nc1ncnc2c([C@@H]3O[C@H](CO)[C@@H](O)[C@H]3O)c[nH]c12` [9-DAA], the Kd was determined as 7.89 µM.
